Drawing on ChEMBL document CHEMBL3856238, “Synthesis of novel nicotinohydrazide and (1,3,4-oxadiazol-2-yl)-6-(trifluoromethyl)pyridine derivatives as potential anticancer agents” (Bioorg Med Chem Lett, 2016), this text covers IC50 for seven compounds.

Structures are written as SMILES.

What all share (type): functional, cell-based
Experiment [1] is described as follows: Cytotoxicity against human HeLa cells assessed as cell growth inhibition by MTT assay. (In general: Formazan colour is commonly taken as a measure of viable cells.)
A short description of experiment [2]: Cytotoxicity against human DU145 cells assessed as cell growth inhibition by MTT assay. Conditions: DU-145.
Experiment [3] is described as follows: Cytotoxicity against human HepG2 cells assessed as cell growth inhibition by MTT assay.
Experiment [4] is described as follows: Cytotoxicity against human MDA-MB-231 cells assessed as cell growth inhibition by MTT assay.

`FC(F)(F)c1ccc(-c2nnc(-c3ccco3)o2)c(NCc2ccco2)n1`: the half-maximal inhibitory concentration (IC50) (in general, the concentration that gives 50% inhibition) stood at 9.8 µM in experiment [1], 8.2 µM in experiment [2], 9.5 µM in experiment [3] and 8.7 µM in experiment [4].
The corresponding values for `O=c1[nH]cc(F)c(=O)[nH]1` [FLUOROURACIL] are 1.9 µM, 1.6 µM, 1.3 µM and 1.8 µM.
`CCc1nnc(-c2ccc(C(F)(F)F)nc2Nc2cc(OC)c(OC)c(OC)c2)o1`: the IC50 in experiment [1] was 23.3 µM; in experiment [2], 22.1 µM; in experiment [3], 19.9 µM; in experiment [4] it was 20.5 µM.
The corresponding values for `O=C(N/N=C/c1ccccc1)c1ccc(C(F)(F)F)nc1NCc1ccco1` are 31.4 µM, 30.5 µM, 32.2 µM and 26.6 µM.
Consider `COc1ccc(-c2nnc(-c3ccc(C(F)(F)F)nc3N)o2)cc1`, for which the IC50 came to 14.8 µM in experiment [1], 10.7 µM in experiment [2], 11.2 µM in experiment [3] and 13.5 µM in experiment [4].
As for `CCc1nnc(-c2ccc(C(F)(F)F)nc2Nc2cccc(F)c2)o1`, the IC50 was determined as 20.9 µM in experiment [1], 22.2 µM in experiment [2], 26.4 µM in experiment [3] and 18.7 µM in experiment [4].
For `CCCc1nnc(-c2ccc(C(F)(F)F)nc2Nc2cccc(F)c2)o1`, the IC50 in experiment [1] was 19.6 µM; in experiment [2], 18.9 µM; in experiment [3] it was 17.7 µM; in experiment [4], 13.5 µM.
